Starred links: 1 amine or outer side, 2 acyl side, 3 side chain; linkers in the order of their positions; H or OH if unused. Residues, ends and D or L forms follow the SMILES beside them. Suc = O=C(CCC(=O)[*:2])[*:1]
Structure (SMILES)	melting point [°C]
Cc1cc(OCc2ccc(-c3ccccc3-c3nnn(C(c4ccccc4)(c4ccccc4)c4ccccc4)n3)cc2)c(-c2cncnc2)c(C)n1	171 to 172
CN(C)Cc1nnc2n1-c1ccc(Cl)cc1C(c1ccccc1)=[N+]([O-])C2	217 to 219
CS(=O)(=O)c1ccc(-c2cc(CO[N+](=O)[O-])nn2CC2CCCCC2)cc1	98 to 99
Cc1c(Br)c2c(c(C)c1NC=O)C(c1ccc(C(C)C)cc1)CO2 (centres undefined)	151 to 152
CS(=O)(=O)N1CCS(=O)c2cccc(Cl)c2C1 (centres undefined)	167 to 169
CC(=C1SCCCS1)c1ccc(Oc2ccc(S(C)=O)cc2)cc1 (centres undefined)	132
CCOC(=O)COc1cc(-n2nc(C)c(Cl)c2C)c(F)cc1Cl	101 to 104
Nc1c2c(nc3ccccc13)C1CCC2CC1	197 to 199
C#CCOc1cc(-n2nc(C)c(Cl)c2C)c(Cl)cc1Cl	156 to 158
O=C(CC1COC1)N[C@H]1CC[C@H](CCN2CCN(c3nccc4c3CCO4)CC2)CC1	195
CC1(C(F)(F)F)C(=O)NC(=O)NC1=O	205 to 206
COc1c(OCCC(NC(=O)OCc2ccccc2)C(=O)O)cc2c(c1OC)C1=C(CCC1)C(=NNC1=CCNCN1)CC2 (racemic)	172
CC(=O)OCC1OC(N(CCCl)P(=O)(O)NCCCl)C(OC(C)=O)C(OC(C)=O)C1OC(C)=O (centres undefined)	91
CCC(O)c1ccc(Cl)c2nc3n(c12)CCCN3c1c(Cl)cc(OC)cc1Cl (centres undefined)	206 to 208
NS(=O)(=O)c1ccccc1C1CCOC1=O (centres undefined)	141 to 146
CCNC(=O)C1CCCN1C(=O)C(C)NC(=O)CCC(=O)O (stereo not drawn) (Suc-Ala-Pro-NHEt; configuration not given here)	139 to 141
COCCOc1nc(Cl)ncc1Cc1ccc(C)nc1	50 to 52

Further lines, results first:

melting point [°C]	Structure (SMILES)
130	COC(=O)Cc1cc(NC(=O)OC(C)(C)C)c(N)cc1C#Cc1ccccc1
137	O=C(NC(Cc1ccccc1)P(O)O)OCc1ccccc1 (centres undefined)
165 to 168	Fc1ccc(Oc2ccc(-c3c[nH]cn3)cc2)cc1
225	Fc1cccc(COc2ccc(Nc3ncnc4sc(C#Cc5ncccn5)cc34)cc2Cl)c1
70 to 71.5	CCOC(=O)c1snc(-c2ccccc2)c1C(=O)OCC
198 to 201	O=C(O)CN1C(=O)C(=Cc2ccc(OCCc3ccccc3)c(OCc3ccccc3)c2)SC1=S
165 to 166	C=C(C)C(=O)NC(=O)Nc1ccccc1
208 to 210	CCCCc1nc2c(N)nc3cccnc3c2n1CCNC(=O)Cc1cccc(O)c1
119	CCC(=NNC(=O)c1cccc(C(F)(F)F)c1)c1cccnc1
207 to 209	CCOC(=O)c1nc(-c2ccsc2)n(-c2cccc(Cl)c2F)c1-c1ccc(F)c(Cl)c1
141 to 142	CCOC(=O)c1cc(-c2ccc(OC)cc2)[nH]c1N
272 to 273	O=C(O)c1cc2c3ccccc3[nH]c(=S)n2n1
130 to 131	CN(C(=O)C(F)(F)F)C1Cc2ccc(C(=O)CCl)cc2C1 (centres undefined)
141 to 143	CC(C)C(=O)N[C@@H](CSC(=O)C(C)C)C(=O)NCCSC(=O)c1ccccc1
185 to 187	COc1ccc2c(c1)CCc1c(cccc1C(=O)O)S2
128 to 130	COc1cccc(N2CCN(Cc3ccccc3C(c3ccc(O)cc3)c3ccc(O)cc3)CC2)c1
185 to 186	O=C(O)c1cccc(-c2ccc(F)c3cc(Cc4cc(F)cc(Cl)c4)sc23)c1
84 to 86	C=C(Cn1ccnc1)c1ccccc1OCc1ccc(Cl)cc1Cl
223 to 224	Nc1ccc(Oc2ccc(O)c(C(=O)O)c2)cc1
212 to 215	Cc1cccc(Nc2cc(Nc3ccc(OCC(N)=O)cc3)ncn2)c1
180	NC(=O)C=Cc1cccc(Cl)c1
207 to 209	COc1ccc(OC)c(NC(=O)c2cc(Br)ccc2O)c1

Source: a melting point compilation (Tetko et al.; mined from patent text by program, amines drawn as free bases though some values may be those of a salt)
